Assay results from patent publication US10653780B2, “Amino lipids and methods for the delivery of nucleic acids” (ARBUTUS BIOPHARMA CORPORATION, priority 2008, dated 2020).
Where “and” joins values, the source holds several entries; their conditions need not be identical. Equal entries are not always repeated. Where two headings read alike, the source gives them in different places.

Key:
[1] = tested on: Factor VII (FVII); details: for FVII ED50: Table 11
Text: It is well established that in vivo RNAi silencing of specific hepatocyte proteins can be achieved following intravenous (i.v.) administration of siRNA's encapsulated in, or associated with, select nanoparticles designed for intracellular delivery. […] In this Example, rational design in combination with in vivo screening were applied to systematically modify the structure of DLinDMA and identify molecular features that enhance or reduce cationic lipid potency. More than 30 lipids were synthesized and incorporated into nucleic acid-lipid particles, i.e., lipid nanoparticles (LN) encapsulating an siRNA (LN-siRNA) targeting Factor VII (FVII), a blood clotting component synthesized and secreted by hepatocytes that is readily measured in serum. LN-siRNA systems were prepared using the same process, lipid molar ratios and particle size to minimize effects on activity resulting from formulation characteristics other than the cationic lipid. Each formulation was administered as a single bolus injection over a range of doses enabling an estimate of the siRNA dose required to reduce FVII serum protein concentrations by 50% after 24 h (ED50).
FVII activity was evaluated in FVII siRNA-treated animals at 24 hours after intravenous (bolus) injection in C57BL/6 mice or 48 hours after intravenous (bolus) injection in SD rats. Six to 8 week old, female C57Bl/6 mice were obtained from Charles River Laboratories and acclimated for one week prior to use in studies. Animals were held in a pathogen-free environment and all procedures involving animals were performed in accordance with the guidelines established by the Canadian Council on Animal Care.
LN-siRNA systems containing Factor VII siRNA were diluted to the appropriate concentrations in sterile phosphate buffered saline immediately prior to use, and the formulations were administered intravenously via the lateral tail vein in a total volume of 10 ml/kg. After 24 h, animals were anaesthetised with Ketamine/Xylazine and blood was collected by cardiac puncture and processed to serum (Microtainer Serum Separator Tubes; Becton Dickinson, Franklin Lakes, N.J., USA). Serum was tested immediately or stored at −70° C. for later analysis for serum Factor VII levels.
FVII was measured using a commercially available kit (Biophen FVII Kit™; Aniara Corp., Mason, Ohio), following the manufacturer's instructions at a microplate scale. FVII reduction was determined against untreated control animals, and the results were expressed as % Residual FVII. Five dose levels (0.1, 0.3, 0.5, 1.0, and 3.0 mg/kg) were typically used.
Serum Factor VII levels were determined using the colorimetric Biophen VII assay kit (Anaira, USA). Briefly, serially diluted pooled control serum (200%-3.125%) and appropriately diluted plasma samples from treated animals were analyzed using the Biophen VII kit according to manufacturer's instructions in 96-well, flat bottom, non-binding polystyrene assay plates (Corning, Corning, N.Y.) and absorbance at 405 nm was measured. A calibration curve was generated using the serial diluted control serum and used to determine levels of Factor VII in serum from treated animals.
Initial studies were performed in eight to 10 week old, female C57BL/6 mice in two stages. In the first stage, the activity associated with the benchmark lipid DLinDMA was compared to the activity associated with modified forms of DLinDMA.

[2] = Bilayer-to-hexagonal HII transition temperature (TBH) in equimolar mixtures with DSPS; format: physicochemical; details: equimolar with DSPS, pH 4.8; 31P NMR and DSC
Text: Both techniques gave similar results.

[3] = In situ determination of apparent pKa using TNS fluorescence titration
Text: In situ pKa measurements were made using the pH sensitive fluorescent probe TNS, using a modification of the approach previously published in Bailey, A. L. and Cullis, P. R., Biochemistry 33:12573-12580 (1994).
Titrations of surface charge as a function of pH can then be used to determine the apparent pKa (hereafter referred to as pKa) of constituent lipids (Cullis, P. R., et al., Chem Phys Lipids 40:127-144 (1986)).

[4] = Tolerability of DLin-K-DMA-containing LN-siRNA systems in mice at extreme doses
Method: The tolerability of empty DLin-K-C2-DMA lipid particles (DLin-K-C2-DMA/DSPC/Chol/PEG-C-DOMG (40/10/40/10)) was evaluated by monitoring weight change, cageside observations, clinical chemistry and, in some instances, hematology in femal Sprague Dawley rats and female C57BL/6 mice. Animal weights were recorded prior to treatment and at 24 hours after intravenous treatment with various dosages. Data was recorded as % Change in Body Weight. In addition to body weight measurements, clinical chemistry panel, including liver function markers, was obtained at each dose level at 24 hours post-injection using an aliquot of the serum collected for FVII analysis. […] In some instances, additional animals were included in the treatment group to allow collection of whole blood for hematology analysis.
The toxicity criteria measured were % change in body weight and serum levels of the liver enzyme markers, ALT and AST.

[5] = Pharmacokinetic and liver analysis of Cy-3 labeled siRNA in LN-siRNA systems; format: in vivo
Text: A fluorescently labeled siRNA (Cy-3 labeled luciferase siRNA, Alnylam Pharmaceuticals) was used to measure the siRNA content in plasma and liver after iv administration of LN-siRNA systems. The measurements were done by first extracting the Cy3-siRNA from the protein-containing biological matrix and then analyzing the amount of Cy-3 label in the extract by fluorescence. Two extraction methods were used, a chloroform/methanol mixture for the plasma samples and a commercial phenol/chloroform mixture (Trizol® reagent) with the tissue samples.
For plasma, blood was collected in EDTA-containing Vacutainer tubes and centrifuged at 1000×g for 10 min at 4-8° C. to isolate the plasma. The plasma was transferred to an eppendorf tube and either assayed immediately or stored in a −30° C. freezer. An aliquot of the plasma (100 μL maximum) was diluted to 500 μL with PBS (145 mM NaCl, 10 mM phosphate, pH 7.5), methanol (1.05 mL and chloroform (0.5 mL) was added, and the sample vortexed to obtain a clear, single phase solution. Water (0.5 mL) and chloroform (0.5 mL) was then added and the resulting emulsion sustained by mixing periodically for a minimum of 3 minutes. The mixture was centrifuged at 3000 rpm for 20 minutes and the top aqueous phase containing the Cy-3-label transferred to a new test tube. The fluorescence of the solution was measured using an SLM Fluorimeter at an excitation wavelength of 550 nm (2 nm bandwidth) and emission wavelength of 600 nm (16 nm bandwidth). A standard curve was generated by spiking aliquots of plasma from untreated animals with the Cy-3-siRNA containing formulation (0 to 15 μg/mL), and the sample processed as indicated above.
For liver, sections (400-500 mg) of tissue from saline-perfused animals was accurately weighed and homogenized in 1 mL of Trizol using Fastprep tubes. An aliquot of the homogenate (typically equivalent to 50 mg of tissue) was transferred to an eppendorf tube and additional Trizol added to 1 mL final. Chloroform (0.2 mL) was added, and the solution was mixed and incubated for 2-3 min before being centrifuged for 15 min at 12,000×g. An aliquot (0.5 mL) of the top Cy-3-containing aqueous phase was diluted with 0.5 mL of PBS and the fluorescence of the sample measured as described above.
The correlation between levels of siRNA delivered to the liver and FVII reduction was determined by encapsulating Cy-3 labeled siRNA in the selection of LN-siRNA systems covering a spectrum of in vivo activities shown in Table 8. Cy-3 fluorescence was measured in plasma and liver tissue 0.5 and 3.0 h post injection.

[6] = Table 6, siRNA dose reducing serum FVII protein by 50% at 24 h, PFV LN-siRNA 40/10/40/10
[7] = siRNA dose reducing serum FVII protein by 50% at 24 h, PFV LN-siRNA 40/10/40/10
[8] = Table 7, siRNA dose reducing serum FVII protein by 50% at 24 h, PFV LN-siRNA 40/10/40/10
[9] = Table 4, siRNA dose reducing serum FVII protein by 50% at 24 h, PFV LN-siRNA 40/10/40/10
[10] = Table 8, FVII ED50 of the LN-siRNA system
[11] = siRNA 0-10 mg/kg, total lipid 0-164 mg/kg
[12] = siRNA 46 mg/kg, total lipid 750 mg/kg
[13] = siRNA 61 mg/kg, total lipid 1000 mg/kg
[14] = siRNA 76 mg/kg, total lipid 1250 mg/kg
[15] = siRNA 92 mg/kg, total lipid 1500 mg/kg

CCCCC/C=C\C/C=C\CCCCCCCCC1(CCCCCCCC/C=C\C/C=C\CCCCC)OCC(CCCCN(C)C)O1 (stereo not shown) [DLin-K-C4-DMA, 2,2-Dilinoleyl-4-(4-dimethylaminobutyl)-[1,3]-dioxolane]
ED50 [1, 6]: >3 mg/kg
FVII ED50 [1]: >3.0 mg/kg
fold less active in vivo than DLin-K-C3-DMA ([1]; mouse, in vivo): more than 5 fold
ED50 [1, 7]: > 3 mg/kg
HII transition temperature [2]: 18 °C
pKa [3]: 6.8

CCCCC/C=C\C/C=C\CCCCCCCCC1(CCCCCCCC/C=C\C/C=C\CCCCC)OCC(CN2CCN(C)CC2)O1 (stereo not shown) [DLin-K-MPZ, 2,2-Dilinoleyl-4-N-methylpepiazino-[1,3]-dioxolane]
ED50 [1, 6]: ~1.5 mg/kg
FVII ED50 [1]: ~1.5 mg/kg
fold less active than DLin-K-DMA ([1]; mouse FVII model): approximately 5 fold
ED50 [1, 7]: ~1.5 mg/kg
pKa [3]: 6.2

CCCCC/C=C\C/C=C\CCCCCCCCC1(CCCCCCCC/C=C\C/C=C\CCCCC)OCC(CCCN(C)C)O1 (stereo not shown) [DLin-K-C3-DMA, 2,2-Dilinoleyl-4-(3-dimethylaminopropyl)-[1,3]-dioxolane]
ED50 [1, 6]: ~0.6 mg/kg
FVII ED50 [1]: ~0.6 mg/kg
ED50 [1, 7]: ~0.6 mg/kg
HII transition temperature [2]: 18 °C
pKa [3]: 6.8

CCCCC/C=C\C/C=C\CCCCCCCCC1(CCCCCCCC/C=C\C/C=C\CCCCC)OCC(CN(C)C)CO1 [DLin-K6-DMA, 2,2-dilinoleyl-5-dimethylaminomethyl-[1,3]-dioxane]
ED50 [1, 8]: ~0.3 mg/kg
FVII ED50 [1]: ~0.3 mg/kg
pKa [3]: 6.2

CCCCC/C=C\C/C=C\CCCCCCCCC1(CCCCCCCC/C=C\C/C=C\CCCCC)OCC(CN(C)C)O1 (racemic) [DLin-K-DMA, 2,2-Dilinoleyl-4-dimethylaminomethyl-[1,3]-dioxolane]
ED50 [1, 9]: ~0.4 mg/kg
ED50 [1, 6]: ~0.4 mg/kg
ED50 [1, 8]: ~1 mg/kg
ED50 [1, 10]: 0.3 mg/kg
FVII ED50 [1]: ~0.4 mg/kg
FVII ED50 ([1]; listed as DLin-K-DMA (racemic mixture)): ~0.3 mg/kg
fold more potent than the DLinDMA benchmark ([1]; reducing serum FVII protein, mouse, head-to-head): ~2.5 fold
ED50 [1, 7]: ~0.4 mg/kg
ED50 ([1]; siRNA dose reducing serum FVII protein by 50% at 24 h, PFV LN-siRNA 40/10/40/10, listed as DLin-K-DMA racemic mixture): ~0.3 mg/kg
HII transition temperature [2]: 19 °C
pKa [3]: 5.6
siRNA dose up to which no changes in blood chemistry or body weight were observed ([4]; compared to saline controls, mice): 10 mg/kg
body weight lost ([4]; maximum dose 92 mg siRNA/kg, 1500 mg total lipid/kg): 6%
siRNA dose exceeded before severe (>10-fold) ALT/AST increases are observed ([4]; mice): exceeded 61 mg/kg
% Change Body Weight [4, 11]: 0%
ALT [4, 11]: 45 IU/L
AST [4, 11]: 90 IU/L
% Change Body Weight [4, 12]: −5.0%
ALT [4, 12]: 174 IU/L
AST [4, 12]: 340 IU/L
increases in serum ALT and AST [4, 12]: < 10 fold normal
% Change Body Weight [4, 13]: −4.5%
ALT [4, 13]: 448 IU/L
AST [4, 13]: 816 IU/L
% Change Body Weight [4, 14]: −5.5%
ALT [4, 14]: 1771 IU/L
AST [4, 14]: 4723 IU/L
% Change Body Weight [4, 15]: −6.0%
ALT [4, 15]: 4723 IU/L
AST [4, 15]: 2094 IU/L
fold greater than the ED50 dose ([4]; siRNA dose of 10 mg/kg without changes): > 30 fold
fold more than the ED50 ([4]; siRNA dose of 46 mg/kg, first significant toxicity signs): 150 fold

CCCCC/C=C\C/C=C\CCCCCCCCOCC(CN(C)C)OCCCCCCCC/C=C\C/C=C\CCCCC (stereo not shown) [DLinDMA, 1,2-Dilinoleyloxy-3-dimethylaminopropane, reference compound]
ED50 ([1]; Table 3, siRNA dose reducing serum FVII protein by 50% at 24 h, single i.v. bolus, PFV LN-siRNA 40/10/40/10): ~1 mg/kg
ED50 [1, 9]: ~1 mg/kg
ED50 ([1]; Table 5, siRNA dose reducing serum FVII protein by 50% at 24 h, PFV LN-siRNA 40/10/40/10): ~1 mg/kg
ED50 [1, 10]: 1.0 mg/kg
FVII ED50 [1]: ~1.0 mg/kg
ED50 [1, 7]: ~1.0 mg/kg and 1 mg/kg
HII transition temperature [2]: 27 °C
pKa [3]: 6.4
molecules charged ([3]; at pH 7.4): 5-10%
pKa ([3]; nucleic acid-lipid particles containing the cationic lipid): 6.4

CCCCC/C=C\C/C=C\CCCCCCCCOC(COC(=O)CCCCCCC/C=C\C/C=C\CCCCC)CN(C)C (stereo not shown) [DLin-2-DMAP, 1-Linoleoyl-2-linoeyloxy-3-dimethylaminopropane]
ED50 [1, 9]: 5 to 12 mg/kg
ED50 [1, 10]: 5 to 12 mg/kg
Liver Cy-3 siRNA ([5]; 0.5 h post injection): 20.5 % injected dose
Plasma Cy-3 siRNA ([5]; 0.5 h post injection): 17.5 % injected dose
Liver Cy-3 siRNA ([5]; 3.0 h post injection): 2.5 % injected dose
Plasma Cy-3 siRNA ([5]; 3.0 h post injection): 8.8 % injected dose
